{"source": "patent US20250289806A1", "about": "“COMPOUNDS FOR PROLIFERATIVE DISORDERS” (UNIVERSITY OF MIAMI, priority 2022, published 2025)", "key": {"STK17A": {"molecular_target": "T1, STK17A (Homo sapiens, UniProt Q9UEE5)", "T1 construct": "purchased Reaction Biology Corporation", "T1 sequence (Q9UEE5 1-414)": "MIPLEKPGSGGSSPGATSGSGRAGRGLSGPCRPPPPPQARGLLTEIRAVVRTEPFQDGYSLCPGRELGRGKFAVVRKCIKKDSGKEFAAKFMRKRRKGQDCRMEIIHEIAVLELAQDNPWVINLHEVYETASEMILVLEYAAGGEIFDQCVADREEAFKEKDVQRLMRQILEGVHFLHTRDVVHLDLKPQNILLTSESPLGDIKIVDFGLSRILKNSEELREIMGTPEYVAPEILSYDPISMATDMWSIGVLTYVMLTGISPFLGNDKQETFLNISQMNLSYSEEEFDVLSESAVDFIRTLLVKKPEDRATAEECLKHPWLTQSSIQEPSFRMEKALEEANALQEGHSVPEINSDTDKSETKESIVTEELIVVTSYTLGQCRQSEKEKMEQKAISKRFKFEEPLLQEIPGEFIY", "assay": "Enzymatic activity assay (Reaction Biology Corporation), STK17A", "format": "biochemical", "conditions": "enzymatic activity assay; read-out: IC50 STK17A", "procedure": "(§1) All enzymatic assays and panel profiling studies are activity assays, which were carried out by Reaction Biology Corporation according to the company's protocols."}, "MYLK4": {"molecular_target": "T2, MYLK4 (Homo sapiens, UniProt Q86YV6)", "T2 construct": "purchased Reaction Biology Corporation", "T2 sequence (Q86YV6 1-388)": "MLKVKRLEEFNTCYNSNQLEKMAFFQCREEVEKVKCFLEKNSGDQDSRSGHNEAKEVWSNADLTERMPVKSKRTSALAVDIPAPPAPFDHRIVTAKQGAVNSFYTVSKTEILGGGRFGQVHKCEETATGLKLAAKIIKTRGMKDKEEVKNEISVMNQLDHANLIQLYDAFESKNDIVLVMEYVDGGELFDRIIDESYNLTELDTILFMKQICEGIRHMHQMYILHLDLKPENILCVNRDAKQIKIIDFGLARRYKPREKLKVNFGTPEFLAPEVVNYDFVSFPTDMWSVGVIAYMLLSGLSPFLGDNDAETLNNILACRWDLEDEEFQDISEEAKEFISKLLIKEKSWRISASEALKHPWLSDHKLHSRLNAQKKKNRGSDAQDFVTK", "assay": "Enzymatic activity assay (Reaction Biology Corporation), MYLK4", "format": "biochemical", "procedure": "as §1"}, "K562": {"test_system": "K562", "assay": "Cell viability assay, K562", "format": "cell-based", "conditions": "Homo sapiens; K562, chronic myeloid leukemia; cell viability, 72 hours"}, "RS4; 11": {"test_system": "RS4; 11", "assay": "Cell viability assay, RS4; 11", "format": "cell-based", "conditions": "Homo sapiens; RS4; 11, acute lymphoblastic leukemia; cell viability, 72 hours"}, "MOLT4": {"test_system": "MOLT4", "assay": "Cell viability assay, MOLT4", "format": "cell-based", "conditions": "Homo sapiens, MOLT-4; MOLT4, acute lymphoblastic leukemia; cell viability, 72 hours"}, "Jurkat": {"test_system": "Jurkat", "assay": "Cell viability assay, Jurkat", "format": "cell-based", "conditions": "Homo sapiens, acute lymphoblastic leukemia, cell viability, 72 hours"}, "MOLM-13": {"test_system": "MOLM-13", "assay": "Cell viability assay, MOLM-13", "format": "cell-based", "conditions": "Homo sapiens; MOLM-13, acute myeloid leukemia; cell viability, 72 hours"}, "HEL": {"test_system": "HEL", "assay": "Cell viability assay, HEL", "format": "cell-based", "conditions": "Homo sapiens, acute myeloid leukemia, cell viability, 72 hours"}, "MV-4-11": {"test_system": "MV-4-11", "assay": "Cell viability assay, MV-4-11", "format": "cell-based", "conditions": "Homo sapiens, MV4-11; MV-4-11, acute myeloid leukemia; cell viability, 72 hours"}, "SET-2": {"test_system": "SET-2", "assay": "Cell viability assay, SET-2", "format": "cell-based", "conditions": "Homo sapiens; SET-2, acute myeloid leukemia; cell viability, 72 hours"}, "Kasumi-1": {"test_system": "Kasumi-1", "assay": "Cell viability assay, Kasumi-1", "format": "cell-based", "conditions": "Homo sapiens; Kasumi-1, acute myeloid leukemia; cell viability, 72 hours"}, "SKNO-1": {"test_system": "SKNO-1", "assay": "Cell viability assay, SKNO-1", "format": "cell-based", "conditions": "SKNO-1, acute myeloid leukemia; cell viability, 72 hours"}, "THP-1": {"test_system": "THP-1", "assay": "Cell viability assay, THP-1", "format": "cell-based", "conditions": "Homo sapiens; THP-1, acute myeloid leukemia; cell viability, 72 hours"}, "TF1": {"test_system": "TF1", "assay": "Cell viability assay, TF1", "format": "cell-based", "conditions": "Homo sapiens, TF-1; TF1, acute myeloid leukemia; cell viability, 72 hours"}, "OCI-AML3": {"test_system": "OCI-AML3", "assay": "Cell viability assay, OCI-AML3", "format": "cell-based", "conditions": "Homo sapiens, OCI-AML-3; OCI-AML3, acute myeloid leukemia; cell viability, 72 hours"}, "HL-60": {"test_system": "HL-60", "assay": "Cell viability assay, HL-60", "format": "cell-based", "conditions": "Homo sapiens; HL-60, acute myeloid leukemia; cell viability, 72 hours"}, "KMS12BM": {"test_system": "KMS12BM", "assay": "Cell viability assay, KMS12BM", "format": "cell-based", "conditions": "Homo sapiens, KMS-12-BM, multiple myeloma, cell viability, 72 hours"}, "RPMI8226": {"test_system": "RPMI8226", "assay": "Cell viability assay, RPMI8226", "format": "cell-based", "conditions": "Homo sapiens, RPMI-8226; RPMI8226, multiple myeloma; cell viability, 72 hours"}, "OPM2": {"test_system": "OPM2", "assay": "Cell viability assay, OPM2", "format": "cell-based", "conditions": "Homo sapiens, OPM-2; OPM2, multiple myeloma; cell viability, 72 hours"}, "LP1": {"test_system": "LP1", "assay": "Cell viability assay, LP1", "format": "cell-based", "conditions": "Homo sapiens, LP-1; LP1, multiple myeloma; cell viability, 72 hours"}, "U266B1": {"test_system": "U266B1", "assay": "Cell viability assay, U266B1", "format": "cell-based", "conditions": "U266B1, multiple myeloma; cell viability, 72 hours"}, "SKMM2": {"test_system": "SKMM2", "assay": "Cell viability assay, SKMM2", "format": "cell-based", "conditions": "Homo sapiens, SK-MM-2; SKMM2, multiple myeloma; cell viability, 72 hours"}, "KMS12PE": {"test_system": "KMS12PE", "assay": "Cell viability assay, KMS12PE", "format": "cell-based", "conditions": "Homo sapiens, KMS-12-PE, multiple myeloma, cell viability, 72 hours"}, "MM-M1": {"test_system": "MM-M1", "assay": "Cell viability assay, MM-M1", "format": "cell-based", "conditions": "MM-M1, multiple myeloma; cell viability, 72 hours"}, "BJAB": {"test_system": "BJAB", "assay": "Cell viability assay, BJAB", "format": "cell-based", "conditions": "Homo sapiens, lymphoma, cell viability, 72 hours"}, "MEC-1": {"test_system": "MEC-1", "assay": "Cell viability assay, MEC-1", "format": "cell-based", "conditions": "Homo sapiens, MEC1; MEC-1, lymphoma; cell viability, 72 hours"}, "RIVA": {"test_system": "RIVA", "assay": "Cell viability assay, RIVA", "format": "cell-based", "conditions": "lymphoma, cell viability, 72 hours"}, "HEK293T": {"test_system": "HEK293T", "assay": "Cell viability assay, HEK293T (non-cancer cell line)", "format": "cell-based", "conditions": "Homo sapiens, HEK-293T, non-hematological cell line, cell viability, 72 hours"}, "K562 SF3B1 K666N": {"test_system": "K562 SF3B1 K666N", "assay": "cells", "conditions": "Homo sapiens, K562, 72 h"}, "NALM-6 SF3B1 K666N": {"test_system": "NALM-6 SF3B1 K666N", "assay": "cells", "conditions": "Homo sapiens, NALM-6, 72 h"}, "NALM-6": {"test_system": "NALM-6", "assay": "cells", "conditions": "Homo sapiens, NALM-6, 72 h"}, "MDSL": {"test_system": "MDSL", "assay": "cells", "conditions": "72 h"}, "HEL92.1.7": {"test_system": "HEL92.1.7", "assay": "cells", "conditions": "Homo sapiens, HEL 92.1.7, 72 h"}}, "data": [{"smiles": "CC(C)NC(=O)c1ccc(Nc2nccc(-c3ccc4nc(N5CCCC5)ncc4c3)n2)cc1", "note": "[Example 7]", "values": [{"measurement": "IC50", "setting": "STK17A", "value": "< 0.05", "unit": "µM"}, {"measurement": "IC50", "setting": "MYLK4", "value": "0.05 to 0.1", "unit": "µM"}, {"measurement": "IC50", "setting": "K562", "value": 4.79, "unit": "µM"}, {"measurement": "IC50", "setting": "RS4; 11", "value": 8.37, "unit": "µM"}, {"measurement": "IC50", "setting": "MOLT4", "value": 16.1, "unit": "µM"}, {"measurement": "IC50", "setting": "Jurkat", "value": 25.7, "unit": "µM"}, {"measurement": "IC50", "setting": "MOLM-13", "value": 0.924, "unit": "µM"}, {"measurement": "IC50", "setting": "HEL", "value": 3.6, "unit": "µM"}, {"measurement": "IC50", "setting": "MV-4-11", "value": 3.69, "unit": "µM"}, {"measurement": "IC50", "setting": "SET-2", "value": 3.71, "unit": "µM"}, {"measurement": "IC50", "setting": "Kasumi-1", "value": 8.1, "unit": "µM"}, {"measurement": "IC50", "setting": "SKNO-1", "value": 16.9, "unit": "µM"}, {"measurement": "IC50", "setting": "THP-1", "value": 20, "unit": "µM"}, {"measurement": "IC50", "setting": "TF1", "value": "> 100", "unit": "µM"}, {"measurement": "IC50", "setting": "OCI-AML3", "value": "> 100", "unit": "µM"}, {"measurement": "IC50", "setting": "HL-60", "value": "> 100", "unit": "µM"}, {"measurement": "IC50", "setting": "KMS12BM", "value": 2.47, "unit": "µM"}, {"measurement": "IC50", "setting": "RPMI8226", "value": 8.96, "unit": "µM"}, {"measurement": "IC50", "setting": "OPM2", "value": 23.1, "unit": "µM"}, {"measurement": "IC50", "setting": "LP1", "value": 31.6, "unit": "µM"}, {"measurement": "IC50", "setting": "U266B1", "value": "> 100", "unit": "µM"}, {"measurement": "IC50", "setting": "SKMM2", "value": "> 100", "unit": "µM"}, {"measurement": "IC50", "setting": "KMS12PE", "value": "> 100", "unit": "µM"}, {"measurement": "IC50", "setting": "MM-M1", "value": "> 100", "unit": "µM"}, {"measurement": "IC50", "setting": "BJAB", "value": "> 100", "unit": "µM"}, {"measurement": "IC50", "setting": "MEC-1", "value": "> 100", "unit": "µM"}, {"measurement": "IC50", "setting": "RIVA", "value": "> 100", "unit": "µM"}, {"measurement": "IC50", "setting": "HEK293T", "value": "> 100", "unit": "µM"}, {"measurement": "IC50", "setting": "K562 SF3B1 K666N", "value": 0.182, "unit": "µM"}, {"measurement": "IC50", "setting": "NALM-6 SF3B1 K666N", "value": 0.908, "unit": "µM"}, {"measurement": "IC50", "setting": "NALM-6", "value": 5.5, "unit": "µM"}, {"measurement": "IC50", "setting": "MDSL", "value": "> 100", "unit": "µM"}, {"measurement": "IC50", "setting": "HEL92.1.7", "value": 0.769, "unit": "µM"}]}]}
